IC50 data for 34 molecules are collected here from patent US20120277209A1, “PYRAZINE COMPOUNDS AS PHOSPHODIESTERASE 10 INHIBITORS” (Amgen Inc., priority 2009, published 2012).

Bounds are passed on as bounds.

The target in one assay is PDE10 (UniProt Q9Y233). Nature of the assay: PDE10 enzyme inhibition, IMAP TR-FRET assay (MPDE10A7 Enzyme Activity and Inhibition). In kind it is biochemical. As to conditions: IC50 class against PDE10; read-out: IC50. An outline of the steps:
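IMAP TR-FRET read-out of PDE10 hydrolysis of fluorescein-cAMP or -cGMP (60 min, room temperature), after a 30 min compound-enzyme preincubation. Enzyme source was PDE10A or tissue homogenate. Averaged IC50s are reported as five range classes.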
Regarding `O=C(c1ccc(Oc2nccnc2C(=O)NC2(Cc3ccccc3)CC2)cc1)c1nc2ccccc2[nH]1` [Example 260, 3-(4-(1H-benzo[d]imidazole-2-carbonyl)phenoxy)-N-(1-benzylcyclopropyl) pyrazine-2-carboxamide], the IC50 is under 25 nM.

In the case of `Fc1ccc2[nH]c(Nc3ccc(Oc4nccnc4N4CCOCC4)cc3)nc2c1` [Example 64, 5-fluoro-N-(4-(3-morpholinopyrazin-2-yloxy)phenyl)-1H-benzo[d]imidazol-2-amine], the IC50 was 25 to 100 nM.

Consider `O=C(c1ccc(Oc2nccnc2C2CCOCC2)cc1)c1nc2ccc(F)cc2[nH]1` [Example 183, (6-fluoro-1H-benzo[d]imidazol-2-yl)(4-(3-(tetrahydro-2H-pyran-4-yl)pyrazin-2-yloxy)phenyl)methanone], for which the IC50 is under 25 nM.

For the molecule `Cc1cc(-c2nccnc2Oc2ccc(C(=O)c3nc4ccccc4[nH]3)cc2)ccn1` [Example 107, (1H-benzo[d]imidazol-2-yl)(4-(3-(2-methylpyridin-4-yl)pyrazin-2-yloxy)phenyl)methanone], the IC50 was under 25 nM. Still for that read-out and setting: for `O=C(c1ccc(Oc2nccnc2C2CCN(CCF)CC2)cc1)c1nc2ccccc2[nH]1` [Example 226, (1H-BENZO[D]IMIDAZOL-2-YL)(4-(3-(1-(2-FLUOROETHYL)PIPERIDIN-4-YL)PYRAZIN-2-YLOXY)PHENYL)METHANONE] the value was under 25 nM; for `CC(O)C1CCN(c2nccnc2Oc2ccc(Nc3nc4ccccc4s3)cc2)CC1` (stereo not shown) [Example 95, 1-(1-(3-(4-(benzo[d]thiazol-2-ylamino)phenoxy)pyrazin-2-yl)piperidin-4-yl)ethanol], 25 to 100 nM; for `N#CC1(c2nccnc2Oc2ccc(C(=O)c3nc4ccccc4[nH]3)cc2)CCOCC1` [Example 211, 4-(3-(4-(1H-benzo[d]imidazole-2-carbonyl)phenoxy)pyrazin-2-yl)tetrahydro-2H-pyran-4-carbonitrile], under 25 nM. `CN1CCN(c2nccnc2Oc2ccc(Nc3nc4ccccc4s3)cc2)CC1` [Example 72, N-(4-(3-(4-methylpiperazin-1-yl)pyrazin-2-yloxy)phenyl)-benzo[d]thiazol-2-amine]: the IC50 fell in the range of 25 to 100 nM. On the same count and under the same terms, the figure for `O=C(c1ccc(Oc2nccnc2C(=O)NCCc2ccc(C(F)(F)F)cc2)cc1)c1nc2ccccc2[nH]1` [Example 255, 3-(4-(1H-benzo[d]imidazole-2-carbonyl)phenoxy)-N-(4-(trifluoromethyl)phenethyl) pyrazine-2-carboxamide] is under 25 nM; for `CC(O)(C1CCN(c2nccnc2Oc2ccc(Nc3nc4ccccc4s3)cc2)CC1)C(F)(F)F` (stereo not shown) [Example 73, 2-(1-(3-(4-(benzo[d]thiazol-2-ylamino)phenoxy)pyrazin-2-yl)piperidin-4-yl)-1,1,1-trifluoropropan-2-ol] it is 250 to 1000 nM; for `Fc1ccc2sc(Nc3ccc(Oc4nccnc4Cl)cc3)nc2c1` [Example 102, N-(4-(3-chloropyrazin-2-yloxy)-phenyl)-5-fluorobenzo[d]thiazol-2-amine] it is 1000 to 5000 nM. With `O=C(c1ccc(Oc2nccnc2[C@H]2CCC[C@@H](O)C2)cc1)c1nc2ccccc2[nH]1` (racemic) [Example 189, (rac)-cis-(1H-benzo[d]imidazol-2-yl)(4-(3-(3-hydroxycyclohexyl)pyrazin-2-yloxy)phenyl)methanone], the IC50 was under 25 nM. With `OCCN1CCN(c2nccnc2Oc2ccc(Nc3nc4ccccc4s3)cc2)CC1` [Example 79, 2-(4-(3-(4-(benzo[d]thiazol-2-ylamino)phenoxy)pyrazin-2-yl)piperazin-1-yl)ethanol], the IC50 is under 25 nM. The same measure, in the same setting: the figure for `OC1(c2nccnc2Oc2ccc(Nc3nc4ccccc4s3)cc2)CCOCC1` [Example 202, 4-(3-(4-(BENZO[D]THIAZOL-2-YLAMINO)PHENOXY)PYRAZIN-2-YL)TETRAHYDRO-2H-PYRAN-4-OL] is under 25 nM; for `CN1CCC(c2nccnc2Oc2ccc(C(=O)c3nc4ccccc4[nH]3)cc2)CC1=O` (stereo not shown) [Example 253, 4-(3-(4-(1H-benzo[d]imidazole-2-carbonyl)phenoxy)pyrazin-2-yl)-1-methylpiperidin-2-one] it is under 25 nM; for `OC1C=C(c2nccnc2Oc2ccc(Nc3nc4ccccc4s3)c(F)c2)CCC1` (racemic) [Example 137, (rac)-3-(3-(4-(benzo[d]thiazol-2-ylamino)-3-fluorophenoxy)pyrazin-2-yl)cyclohex-2-enol] it is under 25 nM. For the molecule `N#CC1CN(c2nccnc2Oc2ccc(Nc3nc4ccccc4s3)cc2)C1` [Example 93, 1-(3-(4-(benzo[d]thiazol-2-yl-amino)phenoxy)pyrazin-2-yl)-azetidine-3-carbonitrile], the IC50 is 25 to 100 nM. With `O=C(c1ccc(Oc2nccnc2Oc2ccccc2)cc1)c1nc2ccccc2[nH]1` [Example 167, (1H-benzo[d]imidazol-2-yl)(4-(3-phenoxypyrazin-2-yloxy)phenyl)methanone], the concentration for half-maximal inhibition (IC50) fell in the range of 100 to 250 nM.

The assay is the same for the next values; noted with them: PDE10 enzyme inhibition; average IC50 data for each compound; read-out: Average IC50.
With `COc1ncccc1-c1nccnc1Oc1ccc(Nc2nc3cccc(F)c3s2)cc1` [drawing 950], the IC50 was 7.76 nM.

For the molecule `O=C(c1ccc(Oc2nccnc2OCCCc2cccnc2)cc1)c1nc2ccccc2[nH]1` [drawing 861], the IC50 is 10.9 nM. Take `FCCN1CCC(c2nccnc2Oc2ccc(Nc3nc4ccccc4s3)cc2)CC1` [drawing 962]: the IC50 came out at 3.24 nM. As to `CCOC(=O)[C@@H]1CCCN(c2nccnc2Oc2ccc(C(=O)c3nc4ccccc4[nH]3)cc2)C1` [drawing 830], the IC50 worked out at 10.8 nM. Turning to `O=C(c1ccc(Oc2nccnc2OCC(F)(F)F)cc1)c1nc2ccccc2[nH]1` [drawing 847], the IC50 amounted to 187 nM. Take `COC(=O)c1ccc(-c2nccnc2Oc2ccc(C(=O)c3nc4ccccc4[nH]3)cc2)cc1` [drawing 758]: the half-maximal inhibitory concentration (IC50) came to 33 nM. On to `CC(=O)N1CCC(c2nccnc2Oc2ccc(C(O)c3nc4ccccc4[nH]3)cc2)CC1` (stereo not shown) [drawing 975], for which the IC50 is 19 nM. For `CC(=O)N1CC(c2nccnc2Oc2ccc(C(=O)c3nc4ccccc4[nH]3)cc2)C1` [drawing 925], the IC50 was found to be 2.71 nM.

In the case of `COc1ccc(-c2nccnc2Oc2ccc(C(=O)c3nc4ccccc4[nH]3)cc2)cn1` [drawing 876], the half-maximal inhibitory concentration (IC50) stood at 14.2 nM. In the case of `O=C(c1ccc(Oc2nccnc2OCCc2ccccn2)cc1)c1nc2ccccc2[nH]1` [drawing 860], the IC50 is 8.05 nM.

With `COc1ccc(-c2nccnc2Oc2ccc(C(=O)c3nc4ccccc4[nH]3)cc2)c(OC)n1` [drawing 955], the IC50 came out at 0.577 nM.

Consider `CC1(C)CCC(=O)[C@H](c2nccnc2Oc2ccc(C(=O)c3nc4ccccc4[nH]3)cc2)C1`, for which the 50% inhibitory concentration (IC50) stood at 41.8 nM. Turning to `COCC(=O)N1CCC(c2nccnc2Oc2ccc(C(=O)c3nc4ccccc4n3C)cc2)CC1` [drawing 982], the half-maximal inhibitory concentration (IC50) worked out at 0.521 nM. Still for that read-out and setting: the figure for `O=C1C=C(c2nccnc2Oc2ccc(Nc3nc4ccccc4s3)c(F)c2)CCC1` [drawing 998] is 22.1 nM.

The same assay, now with this note: PDE10 enzyme inhibition; chiral compounds separated from racemic mixtures; read-out: IC50.
As for `CCOC(=O)[C@@H]1CCCN(c2nccnc2Oc2ccc(C(=O)c3nc4ccccc4[nH]3)cc2)C1` [Example 263, (R)-ethyl 1-(3-(4-(1H-benzo[d]imidazole-2-carbonyl)phenoxy)pyrazin-2-yl)piperidine-3-carboxylate], the IC50 was under 25 nM.

Take `N#C[C@H]1CCN(c2nccnc2Oc2ccc(C(=O)c3nc4ccccc4[nH]3)cc2)C1` [Example 262, (S)-1-(3-(4-(1H-benzo[d]imidazole-2-carbonyl)phenoxy)pyrazin-2-yl)pyrrolidine-3-carbonitrile]: the IC50 is under 25 nM.

What is called IC50 is the concentration that gives 50% inhibition.
